The target of one assay is Melanocortin receptor 5 (Homo sapiens, UniProt P33032). Description: Displacement of [125I]NDP-MSH from human recombinant MC5 receptor expressed in Sf9 cells. (In general: Loss of bound radioactivity is the signal in a displacement assay; it reports binding, not function.)
The next assay concerns the target Melanocortin receptor 3 (Homo sapiens, UniProt P41968). Briefly: Displacement of [125I]NDP-MSH from human recombinant MC3 receptor expressed in Sf9 cells.
Assay [1] addresses Melanocyte-stimulating hormone receptor (Mus musculus, UniProt Q01727). Briefly: Displacement of [125I]NDP-MSH from MC1 receptor in mouse B16 cells. Type of assay: cell-based.
In the next assay the target is Melanocortin receptor 4 (Homo sapiens, UniProt P32245). Description: Displacement of [125I]NDP-MSH from human recombinant MC4 receptor expressed in Sf9 cells.
Sequence of Melanocortin receptor 4 (P32245 whole entry): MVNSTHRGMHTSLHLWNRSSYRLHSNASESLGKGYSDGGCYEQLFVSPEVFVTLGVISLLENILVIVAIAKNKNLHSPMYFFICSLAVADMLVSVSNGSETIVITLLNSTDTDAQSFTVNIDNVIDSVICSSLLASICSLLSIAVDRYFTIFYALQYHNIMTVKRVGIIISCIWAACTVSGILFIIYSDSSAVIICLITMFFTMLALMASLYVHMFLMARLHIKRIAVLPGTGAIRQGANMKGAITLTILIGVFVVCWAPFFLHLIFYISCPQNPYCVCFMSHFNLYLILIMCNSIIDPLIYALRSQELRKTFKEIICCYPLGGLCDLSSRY

Sequence of Melanocortin receptor 3 (P41968 whole entry): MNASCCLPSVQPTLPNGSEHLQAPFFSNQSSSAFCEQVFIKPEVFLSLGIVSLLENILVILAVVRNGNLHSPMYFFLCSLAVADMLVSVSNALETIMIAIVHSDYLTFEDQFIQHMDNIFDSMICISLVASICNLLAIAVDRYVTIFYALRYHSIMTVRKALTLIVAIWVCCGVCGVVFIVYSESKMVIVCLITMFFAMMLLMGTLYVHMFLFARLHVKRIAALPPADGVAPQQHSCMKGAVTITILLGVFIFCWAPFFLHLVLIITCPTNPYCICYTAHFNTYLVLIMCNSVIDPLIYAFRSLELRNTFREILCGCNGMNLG
Sequence of Melanocortin receptor 5 (P33032 whole entry): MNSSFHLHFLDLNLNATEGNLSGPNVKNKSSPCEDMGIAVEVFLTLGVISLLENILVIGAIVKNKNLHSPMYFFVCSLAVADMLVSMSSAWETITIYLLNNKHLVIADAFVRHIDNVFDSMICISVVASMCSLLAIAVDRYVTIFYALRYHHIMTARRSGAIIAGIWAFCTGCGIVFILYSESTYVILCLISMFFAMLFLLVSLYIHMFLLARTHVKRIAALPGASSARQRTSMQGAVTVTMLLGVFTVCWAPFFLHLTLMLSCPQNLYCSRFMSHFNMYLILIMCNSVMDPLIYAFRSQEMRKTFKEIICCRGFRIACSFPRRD
Sequence of Melanocyte-stimulating hormone receptor (Q01727 whole entry): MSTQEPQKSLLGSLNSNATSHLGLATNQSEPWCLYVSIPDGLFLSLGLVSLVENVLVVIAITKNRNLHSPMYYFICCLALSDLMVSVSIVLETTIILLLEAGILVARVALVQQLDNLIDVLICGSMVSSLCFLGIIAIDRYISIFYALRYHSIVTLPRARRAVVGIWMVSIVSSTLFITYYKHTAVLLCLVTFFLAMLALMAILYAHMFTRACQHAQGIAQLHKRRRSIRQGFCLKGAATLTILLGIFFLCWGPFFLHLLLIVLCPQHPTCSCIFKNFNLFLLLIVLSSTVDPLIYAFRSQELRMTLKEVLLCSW

Consider `NCC1CCCC(CN(C/C(Cl)=C/c2ccccc2)C(=O)CCCc2c[nH]c3ccccc23)C1` (stereo not given), for which the Ki (in general, the equilibrium dissociation constant of an inhibitor or competing ligand from its target) worked out at 9.1 µM at Melanocortin receptor 5, 25 µM at Melanocortin receptor 3, 1.5 µM in assay [1] and 3.7 µM at Melanocortin receptor 4.
Take `COc1ccccc1/C=C/CN(C(=O)CCCc1c[nH]c2ccccc12)C1CCC(CC2CCC(N)CC2)CC1` (stereo in doubt; form 2): the Ki was determined as 5 µM at Melanocortin receptor 5, 31 µM at Melanocortin receptor 3, 1.6 µM in assay [1] and 4.1 µM at Melanocortin receptor 4.
As to `CC(C)N(CCCCN)C(=O)c1c[nH]c2ccccc12`, the Ki was determined as 279 µM at Melanocortin receptor 5, 112 µM at Melanocortin receptor 3, 106 µM in assay [1] and 222 µM at Melanocortin receptor 4.
Consider `N=C(N)NC1CCC(CC2CCC(N(C/C=C/c3ccccc3)C(=O)CCCc3c[nH]c4ccccc34)CC2)CC1` (stereo not given), for which the Ki on Melanocortin receptor 5 amounted to 37 µM; at Melanocortin receptor 3, 23 µM; in assay [1], 3.5 µM; on Melanocortin receptor 4, 38 µM.
As to `CCC(c1ccccc1)N(CCCCN)C(=O)CCc1c[nH]c2ccccc12` (stereo not given), the Ki on Melanocortin receptor 5 was 13 µM; at Melanocortin receptor 3, 38 µM; in assay [1], 15 µM; at Melanocortin receptor 4, 158 µM.
For `CC1CC(CC2CCC(N(Cc3ccccc3)C(=O)CCCc3c[nH]c4ccccc34)C(C)C2)CCC1N` (stereo in doubt; form 3), the Ki is 6.9 µM on Melanocortin receptor 5, 6.6 µM at Melanocortin receptor 3, 1.7 µM in assay [1] and 3.7 µM on Melanocortin receptor 4.
Consider `COc1ccc(CN(C(=O)CCCc2c(Cc3ccc(O)cc3)[nH]c3ccccc23)C2CCC(CC3CCC(N)CC3)CC2)cc1OC` (stereo not given), for which the Ki is 11 µM at Melanocortin receptor 5, 23 µM at Melanocortin receptor 3, 1.9 µM in assay [1] and 2.4 µM at Melanocortin receptor 4.
In the case of `C/C(=C\c1ccccc1)CN(CCCN)C(=O)Cc1c[nH]c2ccccc12`, the Ki stood at 89 µM on Melanocortin receptor 5, 44 µM on Melanocortin receptor 3, 9.3 µM in assay [1] and 67 µM on Melanocortin receptor 4.
As to `NC1CCC(CC2CCC(N(Cc3ccccc3Cl)C(=O)CCCc3c[nH]c4ccccc34)CC2)CC1` (stereo not given), the Ki on Melanocortin receptor 5 amounted to 5.2 µM; on Melanocortin receptor 3, 22 µM; in assay [1] it was 3.2 µM; on Melanocortin receptor 4, 2.8 µM.
As to `NCCCCCN(C/C(Cl)=C\c1ccccc1)C(=O)CCCc1c[nH]c2ccccc12`, the Ki was 28 µM at Melanocortin receptor 5, 5.4 µM at Melanocortin receptor 3, 0.77 µM in assay [1] and 2.3 µM on Melanocortin receptor 4.
For `C/C(=C\c1ccccc1)CN(CCCCCCN)C(=O)c1cc2cc(O)ccc2[nH]1`, in that order: 20 µM, 27 µM, 3.7 µM and 11 µM.
For the molecule `NCCCN(CCc1ccccc1)C(=O)CCCc1c[nH]c2ccccc12`, the Ki at Melanocortin receptor 5 was 33 µM; on Melanocortin receptor 3, 30 µM; in assay [1], 21 µM; at Melanocortin receptor 4, 164 µM.
`NC1CCC(CC2CCC(N(C/C(Cl)=C/c3ccccc3)C(=O)CCCc3c[nH]c4ccccc34)CC2)CC1` (stereo in doubt; form 2): the Ki at Melanocortin receptor 5 is 8.7 µM; on Melanocortin receptor 3, 17 µM; in assay [1], 0.96 µM; on Melanocortin receptor 4, 2 µM.
For `NC1CCCC(NC(=O)NC2CCCC(N(Cc3ccccc3)C(=O)CCCc3c[nH]c4ccccc34)C2)C1` (stereo not given), in that order: 49 µM, 57 µM, 2.2 µM and 5.3 µM.
Regarding `COc1cc(Br)c(/C=C/CN(C(=O)CCCc2c(Cc3ccc(O)cc3)[nH]c3ccccc23)C2CCC(CC3CCC(N)CC3)CC2)cc1OC` (stereo not given), the Ki on Melanocortin receptor 5 was determined as 18 µM; on Melanocortin receptor 3, 94 µM; in assay [1], 0.94 µM; at Melanocortin receptor 4, 1.3 µM.
Taken in the same sequence, the figures for `NCCCCN(C/C(Cl)=C/c1ccccc1)C(=O)CCCc1c[nH]c2ccccc12` were 85 µM, 32 µM, 2.4 µM and 5.4 µM.
Consider `N=C(N)NCCN(Cc1ccc2ccccc2c1)C(=O)CCCc1c[nH]c2ccccc12`, for which the Ki on Melanocortin receptor 5 amounted to 8.3 µM; at Melanocortin receptor 3 it was 204 µM; in assay [1] it was 8.3 µM; at Melanocortin receptor 4, 179 µM.
In the case of `CCOc1cc(CN(C(=O)CCCc2c(Cc3ccc(O)cc3)[nH]c3ccccc23)C2CCC(CC3CCC(N)CC3)CC2)ccc1OC` (stereo not given), the Ki on Melanocortin receptor 5 was found to be 12 µM; at Melanocortin receptor 3, 26 µM; in assay [1] it was 2.1 µM; on Melanocortin receptor 4 it was 2.1 µM.
Consider `Cc1ccc(CN(C(=O)CCCc2c(Cc3ccc(O)cc3)[nH]c3ccccc23)C2CCC(CC3CCC(N)CC3)CC2)cc1` (stereo not given), for which the Ki at Melanocortin receptor 5 came out at 2.2 µM; at Melanocortin receptor 3, 147 µM; in assay [1] it was 4.7 µM; at Melanocortin receptor 4, 1.9 µM.
`CC(C)N(CCCCN)C(=O)c1c(Cc2ccc(O)cc2)[nH]c2ccccc12`: the Ki was found to be 353 µM at Melanocortin receptor 5, 106 µM on Melanocortin receptor 3, 90 µM in assay [1] and 165 µM on Melanocortin receptor 4.
Taken in the same sequence, the figures for `NC1CCCC(N(Cc2ccccc2)C(=O)CCCc2c[nH]c3ccccc23)C1` (stereo not given) were 18 µM, 30 µM, 3.3 µM and 5.7 µM.
In the case of `NC1CCC(CC2CCC(N(C/C(Cl)=C/c3ccccc3)C(=O)COc3ccc4ccccc4c3)CC2)CC1` (stereo in doubt; form 8), the Ki at Melanocortin receptor 5 was 42 µM; on Melanocortin receptor 3 it was 62 µM; in assay [1], 1.6 µM; at Melanocortin receptor 4, 3.7 µM.
Regarding `C/C(=C\c1ccccc1)CN(CCCN)C(=O)c1c[nH]c2ccccc12`, the Ki at Melanocortin receptor 5 came out at 0.93 µM; on Melanocortin receptor 3 it was 24 µM; in assay [1] it was 0.85 µM; at Melanocortin receptor 4 it was 7.4 µM.
Take `C/C(=C\c1ccccc1)CN(CCCN)C(=O)C(=O)c1c[nH]c2ccccc12`: the inhibition constant Ki on Melanocortin receptor 5 is 58 µM; on Melanocortin receptor 3, 9.1 µM; in assay [1], 1.8 µM; at Melanocortin receptor 4 it was 6.2 µM.
With `NCCCN(Cc1ccc2ccccc2c1)C(=O)CCCc1c[nH]c2ccccc12`, the Ki on Melanocortin receptor 5 amounted to 23 µM; on Melanocortin receptor 3 it was 26 µM; in assay [1], 3.7 µM; on Melanocortin receptor 4 it was 19 µM.
As for `CC1CC(CC2CCC(N(Cc3ccccc3)C(=O)CCCc3c[nH]c4ccccc34)C(C)C2)CCC1N` (stereo in doubt; form 4), the Ki at Melanocortin receptor 5 is 5.6 µM; on Melanocortin receptor 3 it was 12 µM; in assay [1], 1.3 µM; at Melanocortin receptor 4, 3.8 µM.
Taken in the same sequence, the figures for `COc1cc(Cl)c(CN(C(=O)CCCc2c(Cc3ccc(O)cc3)[nH]c3ccccc23)C2CCC(CC3CCC(N)CC3)CC2)cc1OC` (stereo not given) were 11 µM, 8.3 µM, 0.63 µM and 1.9 µM.
Turning to `NCCCCCN(Cc1ccc2ccccc2c1)C(=O)CCc1c[nH]c2ccccc12`, the Ki turned out to be 7.3 µM at Melanocortin receptor 5, 58 µM on Melanocortin receptor 3, 14 µM in assay [1] and 62 µM on Melanocortin receptor 4.
In the case of `NCCCCCN(C/C=C\c1ccccc1)C(=O)CCc1c(Cc2ccc(O)cc2)[nH]c2ccccc12`, the Ki at Melanocortin receptor 5 came to 6.7 µM; on Melanocortin receptor 3, 27 µM; in assay [1], 3.3 µM; at Melanocortin receptor 4, 7.1 µM.
As for `NCCCCCN(C/C(Cl)=C\c1ccccc1)C(=O)/C=C/c1c[nH]c2ccccc12`, the Ki is 5.4 µM at Melanocortin receptor 5, 27 µM at Melanocortin receptor 3, 2.7 µM in assay [1] and 59 µM on Melanocortin receptor 4.

For the origin of these results see ChEMBL document CHEMBL1149662, “Design and synthesis of a library of tertiary amides: evaluation as mimetics of the melanocortins' active core” (Bioorg Med Chem, 2007).
